Experimental data reported in patent US20260265195A1, “SARM1 MODULATORS, PREPARATIONS, AND USES THEREOF” (SIRONAX LTD, priority 2022, published 2026).

What follows are molecules tested against T1, SARM1 (50-724) (Homo sapiens, UniProt Q6SZW1) (assay: SARM1 (50-724) enzymatic assay (NMN-activated NAD+ hydrolysis, LC-MS/MS readout)). Conditions: purified SARM1 (50-724) 2 nM, 200 μM NMN activator, 100 μM NAD+ substrate, 1 h at room temperature, read-out: IC50 (SARM1 inhibitory activity).
T1 construct: Purified SARM1 (50-724) with a final concentration of 2 nM
T1 sequence (Q6SZW1 50-724): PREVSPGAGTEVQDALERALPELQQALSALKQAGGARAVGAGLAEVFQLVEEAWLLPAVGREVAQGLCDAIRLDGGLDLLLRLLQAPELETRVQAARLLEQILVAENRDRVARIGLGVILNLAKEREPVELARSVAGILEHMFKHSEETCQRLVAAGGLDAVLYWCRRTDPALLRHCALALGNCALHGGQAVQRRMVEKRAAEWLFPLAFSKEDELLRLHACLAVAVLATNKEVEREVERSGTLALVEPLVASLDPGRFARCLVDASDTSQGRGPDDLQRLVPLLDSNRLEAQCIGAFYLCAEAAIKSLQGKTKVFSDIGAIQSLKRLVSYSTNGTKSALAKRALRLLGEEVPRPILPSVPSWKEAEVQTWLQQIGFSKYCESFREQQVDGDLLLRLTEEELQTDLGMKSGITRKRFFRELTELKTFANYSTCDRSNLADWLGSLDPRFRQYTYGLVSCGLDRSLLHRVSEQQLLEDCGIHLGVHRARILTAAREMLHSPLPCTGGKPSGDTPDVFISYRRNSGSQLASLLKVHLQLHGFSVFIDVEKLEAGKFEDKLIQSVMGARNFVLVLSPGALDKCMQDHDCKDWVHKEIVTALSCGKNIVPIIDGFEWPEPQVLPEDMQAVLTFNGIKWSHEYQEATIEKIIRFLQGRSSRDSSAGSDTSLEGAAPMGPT
Format: biochemical
Summary of the method: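 Purified human SARM1 (50-724), 2 nM final in DPBS, pre-incubated 15 min at RT with compound (1% DMSO), then started with 200 μM NMN activator and 100 μM NAD+. After 1 h at RT, quenched with 70% acetonitrile; analysed by LC-MS/MS.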

Row | Compound | IC50
1 | Cc1cccc(N(C)C(=O)c2[nH]c3ccc(C)cc3c2CO)c1 [Compound 43, 3-(hydroxymethyl)-N,5-dimethyl-N-(m-tolyl)-1H-indole-2-carboxamidc] | ≥ 1000 nM
2 | CS(=O)(=O)NCCN(C(=O)c1nc2cc(C(F)(F)F)ccc2[nH]1)c1cccc(Cl)c1Cl [Compound 147, N-(2,3-dichlorophenyl)-N-(2-(methylsulfonamido)ethyl)-5-(trifluoromethyl)-1H-benzo[d]imidazole-2-carboxamide] | ≤ 100 nM
3 | O=C(c1nc2cc(C(F)(F)F)ccc2[nH]1)N(CCN1CCCS1(=O)=O)c1cccc(Cl)c1Cl [Compound 199, N-(2,3-dichlorophenyl)-N-(2-(1,1-dioxidoisothiazolidin-2-yl)ethyl)-5-(trifluoromethyl)-1H-benzo[d]imidazole-2-carboxamide] | ≤ 100 nM
4 | COCCN(C(=O)c1nc2cc(C)ccc2[nH]1)C1CCCC1 [Compound 62, N-cyclopentyl-N-(2-methoxyethyl)-5-methyl-1H-benzo[d]imidazole-2-carboxamide] | 101 to 500 nM
5 | Cc1c(Cl)cncc1N(CC1(F)COC1)C(=O)c1nc2cc(C(F)(F)F)ccc2[nH]1 [Compound 184, N-(5-chloro-4-methylpyridin-3-yl)-N-((3-fluorooxetan-3-yl)methyl)-5-(trifluoromethyl)-1H-benzo[d]imidazole-2-carboxamide] | 101 to 500 nM
6 | CN(C(=O)C1Cc2ccccc2N1)C1CCCC1 (stereo not drawn) [Compound 55, N-cyclopentyl-N-methylindoline-2-carboxamide] | ≥ 1000 nM
7 | CN(C(=O)c1[nH]ncc1CO)C1CCCC1 [Compound 33, N-cyclopentyl-4-(hydroxymethyl)-N-methyl-1H-pyrazole-5-carboxamide] | ≥ 1000 nM
8 | Cn1nc(Cl)c(Cl)c1N(CCO)C(=O)c1nc2cc(C(F)(F)F)ccc2[nH]1 [Compound 126, N-(3,4-dichloro-1-methyl-1H-pyrazol-5-yl)-N-(2-hydroxyethyl)-5-(trifluoromethyl)-1H-benzo[d]imidazole-2-carboxamide] | ≥ 1000 nM
9 | Cc1ccc2[nH]c(C(=O)N(C)c3cccc(Cl)c3Cl)c(C#N)c2c1 [Compound 69, 3-cyano-N-(2,3-dichlorophenyl)-N,5-dimethyl-1H-indole-2-carboxamide] | ≤ 100 nM
10 | CN(C(=O)c1nc2c(C#N)cccc2[nH]1)C1CCCC1 [Compound 95, 4-cyano-N-cyclopentyl-N-methyl-1H-benzo[d]imidazole-2-carboxamide] | ≥ 1000 nM
11 | Cc1ccc2[nH]c(C(=O)N(C)c3ccc(Cl)c(Cl)c3)c(CO)c2c1 [Compound 12] | ≥ 1000 nM
12 | Cc1cc(-c2ccc3[nH]c(C(=O)N(CC4COC4)c4cccc(Cl)c4Cl)nc3c2)[nH]n1 [Compound 122] | 101 to 500 nM
13 | O=C(c1nc2cc(C(F)(F)F)cc(F)c2[nH]1)N(CC(F)(F)CO)c1cccc(F)c1Cl [Compound 211] | ≤ 100 nM
14 | C[S+]([O-])CCCN(C(=O)c1nc2cc(C(F)(F)F)ccc2[nH]1)c1cccc(F)c1Cl (racemic) [Compound 230, N-(2-chloro-3-fluorophenyl)-N-(3-(methylsulfinyl)propyl)-5-(trifluoromethyl)-1H-benzo[d]imidazole-2-carboxamide] | ≤ 100 nM
15 | Cc1ccc2[nH]c(C(=O)N(C)C3CCCC3)c(COc3nccs3)c2c1 [Compound 75, N-cyclopentyl-N,5-dimethyl-3-((thiazol-2-yloxy)methyl)-1H-indole-2-carboxamide] | 501 to 1000 nM
16 | Cc1cc(-c2ccc3[nH]c(C(=O)N(CCO)c4cccc(Cl)c4Cl)nc3c2)sn1 [Compound 144] | 101 to 500 nM
17 | Cc1ccc2[nH]c(C(=O)N(C)CCC(C)C)c(CNc3ccccn3)c2c1 [Compound 88, N-isopentyl-N,5-dimethyl-3-((pyridin-2-ylamino)methyl)-1H-indole-2-carboxamide] | ≥ 1000 nM

Now from value to molecule:

Row | IC50 | Compound
18 | ≤ 100 nM | N#Cc1ccc(Cl)c(Cl)c1N(CCO)C(=O)c1nc2cc(C(F)(F)F)ccc2[nH]1 [Compound 115, N-(2,3-dichloro-6-cyanophenyl)-N-(2-hydroxyethyl)-5-(trifluoromethyl)-1H-benzo[d]imidazole-2-carboxamide]
19 | 501 to 1000 nM | CN(C(=O)c1nc2c(C3CC3)cccc2[nH]1)C1CCCC1 [Compound 93, N-cyclopentyl-4-cyclopropyl-N-methyl-1H-benzo[d]imidazole-2-carboxamide]
20 | 101 to 500 nM | Cc1ccc2[nH]c(C(=O)N(C)C3CCCC3)c(CCO)c2c1 [Compound 36, N-cyclopentyl-3-(2-hydroxyethyl)-N,5-dimethyl-1H-indole-2-carboxamide]
21 | ≥ 1000 nM | Cc1ccc2[nH]c(C(=O)N(C)C3CCOCC3)c(CNc3ccccn3)c2c1 [Compound 90, N,5-dimethyl-3-((pyridin-2-ylamino)methyl)-N-(tetrahydro-2H-pyran-4-yl)-1H-indole-2-carboxamide]
22 | 101 to 500 nM | Cc1ccc2[nH]c(C(=O)N(C)c3c(Cl)cccc3Cl)c(CO)c2c1 [Compound 5, N-(2,6-dichlorophenyl)-3-(hydroxymethyl)-N,5-dimethyl-1H-indole-2-carboxamide]
23 | ≤ 100 nM | O=C(c1nc2cc(Cl)cc(F)c2[nH]1)N(c1cccc(F)c1Cl)C1CCS(=O)(=O)C1 (racemic) [Compound 191]
24 | ≤ 100 nM | Cc1c(Cl)cncc1N(CCO)C(=O)c1nc2cc(C(F)(F)F)ccc2[nH]1 [Compound 148, N-(5-chloro-4-methylpyridin-3-yl)-N-(2-hydroxyethyl)-5-(trifluoromethyl)-1H-benzo[d]imidazole-2-carboxamide]
25 | 101 to 500 nM | Cc1ccc2[nH]c(C(=O)N(C)C3CCCC3)c(CNc3nc(C(N)=O)cs3)c2c1 [Compound 73, 2-(((2-(cyclopentyl(methyl)carbamoyl)-5-methyl-1H-indol-3-yl)methyl)amino)thiazole-4-carboxamide]
26 | ≤ 100 nM | CS(=O)(=O)CCCN(C(=O)c1nc2cc(C(F)(F)F)ccc2[nH]1)c1cccc(F)c1Br [Compound 227, N-(2-bromo-3-fluorophenyl)-N-(3-(methylsulfonyl)propyl)-5-(trifluoromethyl)-1H-benzo[d]imidazole-2-carboxamide]
27 | ≥ 1000 nM | Cc1cnc2[nH]c(C(=O)N(C)C3CCCC3)c(CO)c2c1 [Compound 38, N-cyclopentyl-3-(hydroxymethyl)-N,5-dimethyl-1H-pyrrolo[2,3-b]pyridine-2-carboxamide]
28 | ≤ 100 nM | CC1(c2ccc3[nH]c(C(=O)N(CCO)c4cccc(Cl)c4Cl)nc3c2)COC1 [Compound 195]
29 | 101 to 500 nM | Cc1ccc2[nH]c(C(=O)N(C)C3CCCCC3)nc2c1 [Compound 47, N-cyclohexyl-N,5-dimethyl-1H-benzo[d]imidazole-2-carboxamide]
30 | 101 to 500 nM | COc1ccc(Cl)c(N(CC(F)(F)CO)C(=O)c2nc3cc(C(F)(F)F)ccc3[nH]2)n1 [Compound 207, N-(3-chloro-6-methoxypyridin-2-yI)-N-(2,2-difluoro-3-hydroxypropyl)-5-(trifluoromethyl)-1H-benzo[d]imidazole-2-carboxamide]
31 | ≤ 100 nM | Cc1cccc(N(CCO)C(=O)c2nc3cc(C(F)(F)F)ccc3[nH]2)c1Cl [Compound 151, N-(2-chloro-3-methylphenyl)-N-(2-hydroxyethyl)-5-(trifluoromethyl)-1H-benzo[d]imidazole-2-carboxamide]
32 | ≤ 100 nM | O=C(c1nc2cc(C(F)(F)F)ccc2[nH]1)N(CCO)c1ccc(F)c(F)c1Cl [Compound 203, N-(2-chloro-3,4-difluorophenyl)-N-(2-hydroxyethyl)-5-(trifluoromethyl)-1H-benzo[d]imidazole-2-carboxamide]
33 | ≤ 100 nM | CC(C)(C)c1ccc2[nH]c(C(=O)N(CCO)c3cccc(F)c3Cl)nc2c1 [Compound 201]
34 | ≤ 100 nM | NC(=O)C(F)(F)CN(C(=O)c1nc2cc(Cl)cc(F)c2[nH]1)c1cccc(F)c1Cl [Compound 234]
35 | ≤ 100 nM | CN=S(C)(=O)CCCN(C(=O)c1nc2cc(C(F)(F)F)ccc2[nH]1)c1cccc(F)c1Cl (stereo not drawn) [Compound 225, N-(2-chloro-3-fluorophenyl)-N-(3-(N,S-dimethylsulfonimidoyl)propyl)-5-(trifluoromethyl)-1H-benzo[d]imidazole-2-carboxamide]
36 | 101 to 500 nM | Cc1c(Cl)ccnc1N(CCO)C(=O)c1nc2cc(C(F)(F)F)ccc2[nH]1 [Compound 145, N-(4-chloro-3-methylpyridin-2-yl)-N-(2-hydroxyethyl)-5-(trifluoromethyl)-1H-benzo[d]imidazole-2-carboxamide]
37 | 101 to 500 nM | CC(C)c1ccc2[nH]c(C(=O)N(C)C3CCCC3)c(CO)c2c1 [Compound 27, N-cyclopenty1-3-(hydroxymethyl)-5-isopropyl-N-methyl-1H-indole-2-carboxamide]
38 | ≤ 100 nM | COCC1(CN(C(=O)c2nc3cc(C(F)(F)F)ccc3[nH]2)c2cccc(Cl)c2Cl)COC1 [Compound 200]
39 | ≥ 1000 nM | Cc1cccc2c(CO)c(C(=O)N(C)C3CCCC3)[nH]c12 [Compound 39, N-cyclopentyl-3-(hydroxymethyl)-N,7-dimethyl-1H-indole-2-carboxamide]
